Test results published in patent publication US20210395239A1 (Hoffmann-La Roche Inc., priority 2018, published 2021).
pIC50: −log10 of the molar value. Read-outs that look alike come from different tables or passages of the source.

What was measured:
[1] = molecular target: T1, hTLR9 (Homo sapiens, UniProt Q9NR96); set-up: host or cells: HEK; details: data disclosed in US20150105370; read-out: HEK/hTLR9 IC50; cited from earlier work
T1 sequence (Q9NR96 26-1032): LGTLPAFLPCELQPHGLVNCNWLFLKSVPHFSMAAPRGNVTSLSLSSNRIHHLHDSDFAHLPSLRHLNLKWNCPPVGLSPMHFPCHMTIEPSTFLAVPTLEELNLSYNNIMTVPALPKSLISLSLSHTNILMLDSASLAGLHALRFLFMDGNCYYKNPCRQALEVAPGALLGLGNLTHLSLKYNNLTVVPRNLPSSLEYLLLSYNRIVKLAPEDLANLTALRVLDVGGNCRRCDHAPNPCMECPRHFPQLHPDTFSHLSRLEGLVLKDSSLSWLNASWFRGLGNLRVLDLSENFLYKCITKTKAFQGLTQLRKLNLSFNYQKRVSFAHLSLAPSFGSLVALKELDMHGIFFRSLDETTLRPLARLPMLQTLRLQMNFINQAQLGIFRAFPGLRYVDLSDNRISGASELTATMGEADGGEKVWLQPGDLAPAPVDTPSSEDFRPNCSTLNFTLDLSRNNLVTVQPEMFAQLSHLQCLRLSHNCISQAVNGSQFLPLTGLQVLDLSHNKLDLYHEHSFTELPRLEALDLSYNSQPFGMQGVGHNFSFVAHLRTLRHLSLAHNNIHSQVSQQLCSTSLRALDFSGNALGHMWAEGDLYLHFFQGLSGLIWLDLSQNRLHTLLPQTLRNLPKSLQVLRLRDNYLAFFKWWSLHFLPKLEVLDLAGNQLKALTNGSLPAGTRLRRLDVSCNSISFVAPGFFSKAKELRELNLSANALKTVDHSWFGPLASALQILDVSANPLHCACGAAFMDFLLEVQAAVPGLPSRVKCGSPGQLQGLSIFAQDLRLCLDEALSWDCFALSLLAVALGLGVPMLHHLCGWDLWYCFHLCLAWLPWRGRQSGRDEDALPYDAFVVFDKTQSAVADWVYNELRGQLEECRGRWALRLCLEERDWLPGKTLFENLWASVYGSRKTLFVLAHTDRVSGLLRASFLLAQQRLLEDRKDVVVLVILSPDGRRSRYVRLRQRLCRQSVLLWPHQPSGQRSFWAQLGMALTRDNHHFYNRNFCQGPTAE

[2] = molecular target: T2, hERG channel (Homo sapiens, UniProt Q12809); experiment: hERG channel inhibition assay (patch-clamp, CHOhERG cells); assay type: cell-based; details: for safety window (hERG IC20/TLR7/8/9 IC50) compared to the compounds of this invention: result in words; for hERG IC20/TLR7 IC50 / hERG IC20/TLR9 IC50 / hERG IC20/TLR8 IC50: safety ratio
T2 construct: expressed in transfected cells; host or cells: CHO (Chinese hamster ovary)
Protocol: hERG Channel Inhibition Assay:
The hERG K^+ channels were cloned in humans and stably expressed in a CHO (Chinese hamster ovary) cell line. CHOhERG cells were used for patch-clamp (voltage-clamp, whole-cell) experiments. Cells were stimulated by a voltage pattern to activate hERG channels and conduct IKhERG currents (rapid delayed outward rectifier potassium current of the hERG channel). After the cells were stabilized for a few minutes, the amplitude and kinetics of IKhERG were recorded at a stimulation frequency of 0.1 Hz, (6 bpm). Thereafter, the test compound was added to the preparation at increasing concentrations. For each concentration, an attempt was made to reach a steady-state effect, usually, this was achieved within 3-10 min at which time the next highest concentration was applied. The amplitude and kinetics of IKhERG are recorded in each concentration of the drug which were compared to the control values (taken as 100%). (references: Redfern W S, Carlsson L, Davis A S, Lynch W G, MacKenzie I, Palethorpe S, Siegl P K, Strang I, Sullivan A T, Wallis R, Camm A J, Hammond T G. 2003; Relationships between preclinical cardiac electrophysiology, clinical QT interval prolongation and torsade de pointes for a broad range of drugs: evidence for a provisional safety margin in drug development. Cardiovasc. Res. 58:32-45, Sanguinetti M C, Tristani-Firouzi M. 2006; hERG potassium channels and cardiac arrhythmia. Nature 440:463-469, Webster R, Leishman D, Walker D. 2002; Towards a drug concentration effect relationship for QT prolongation and torsades de pointes. Curr. Opin. Drug Discov. Devel. 5:116-26).

[3] = molecular target: T1, hTLR9; experiment: HEK293-Blue-hTLR-9 cells assay (SEAP reporter, ODN2006 stimulation); assay type: cell-based; set-up: host or cells: HEK293 (HEK-Blue hTLR9); details: HEK293-Blue-hTLR9 cells, ODN2006, 20 hrs; read-out: HEK/hTLR9 IC50
From the text: HEK293-Blue-hTLR-9 Cells Assay:
A stable HEK293-Blue-hTLR-9 cell line was purchased from InvivoGen (Cat. #: hkb-htlr9, San Diego, Calif., USA). These cells were originally designed for studying the stimulation of human TLR9 by monitoring the activation of NF-κB. A SEAP (secreted embryonic alkaline phosphatase) reporter gene was placed under the control of the IFN-β minimal promoter fused to five NF-κB and AP-1-binding sites. The SEAP was induced by activating NF-κB and AP-1 via stimulating HEK-Blue hTLR9 cells with TLR9 ligands. Therefore the reporter expression was declined by TLR9 antagonist under the stimulation of a ligand, such as ODN2006 (Cat. #: tlrl-2006-1, Invivogen, San Diego, Calif., USA), for incubation of 20 hrs. The cell culture supernatant SEAP reporter activity was determined using QUANTI-Blue™ kit (Cat. #: rep-qb1, Invivogen, San Diego, Calif., USA) at a wavelength of 640 nm, a detection medium that turns purple or blue in the presence of alkaline phosphatase.
HEK293-Blue-hTLR9 cells were incubated at a density of 250,000˜450,000 cells/mL in a volume of 170 μL in a 96-well plate in Dulbecco's Modified Eagle's medium (DMEM) containing 4.5 g/L glucose, 50 U/mL penicillin, […], 2 mM L-glutamine, 10% (v/v) heat-inactivated fetal bovine serum with addition of 20 μL test compound in a serial dilution in the presence of final DMSO at 1% and 10 μL of 20 uM ODN2006 in above DMEM, perform incubation under 37° C. in a CO2 incubator for 20 hrs. Then 20 μL of the supernatant from each well was incubated with 180 μL Quanti-blue substrate solution at 37° C. for 2 h and the absorbance was read at 620-655 nm using a spectrophotometer. The signaling pathway that TLR9 activation leads to downstream NF-κB activation has been widely accepted, and therefore similar reporter assay was modified for evaluating TLR9 antagonist.

[4] = molecular target: T3, human TLR7 (Homo sapiens, UniProt Q9NYK1); experiment: HEK293-Blue-hTLR-7 cells assay (SEAP reporter, R848 stimulation); assay type: cell-based; details: HEK293-Blue-hTLR7 cells, R848, 20 hrs; read-out: HEK/hTLR7 IC50
T3 construct: host or cells: HEK293 (HEK-Blue hTLR7)
T3 sequence (Q9NYK1 27-1049): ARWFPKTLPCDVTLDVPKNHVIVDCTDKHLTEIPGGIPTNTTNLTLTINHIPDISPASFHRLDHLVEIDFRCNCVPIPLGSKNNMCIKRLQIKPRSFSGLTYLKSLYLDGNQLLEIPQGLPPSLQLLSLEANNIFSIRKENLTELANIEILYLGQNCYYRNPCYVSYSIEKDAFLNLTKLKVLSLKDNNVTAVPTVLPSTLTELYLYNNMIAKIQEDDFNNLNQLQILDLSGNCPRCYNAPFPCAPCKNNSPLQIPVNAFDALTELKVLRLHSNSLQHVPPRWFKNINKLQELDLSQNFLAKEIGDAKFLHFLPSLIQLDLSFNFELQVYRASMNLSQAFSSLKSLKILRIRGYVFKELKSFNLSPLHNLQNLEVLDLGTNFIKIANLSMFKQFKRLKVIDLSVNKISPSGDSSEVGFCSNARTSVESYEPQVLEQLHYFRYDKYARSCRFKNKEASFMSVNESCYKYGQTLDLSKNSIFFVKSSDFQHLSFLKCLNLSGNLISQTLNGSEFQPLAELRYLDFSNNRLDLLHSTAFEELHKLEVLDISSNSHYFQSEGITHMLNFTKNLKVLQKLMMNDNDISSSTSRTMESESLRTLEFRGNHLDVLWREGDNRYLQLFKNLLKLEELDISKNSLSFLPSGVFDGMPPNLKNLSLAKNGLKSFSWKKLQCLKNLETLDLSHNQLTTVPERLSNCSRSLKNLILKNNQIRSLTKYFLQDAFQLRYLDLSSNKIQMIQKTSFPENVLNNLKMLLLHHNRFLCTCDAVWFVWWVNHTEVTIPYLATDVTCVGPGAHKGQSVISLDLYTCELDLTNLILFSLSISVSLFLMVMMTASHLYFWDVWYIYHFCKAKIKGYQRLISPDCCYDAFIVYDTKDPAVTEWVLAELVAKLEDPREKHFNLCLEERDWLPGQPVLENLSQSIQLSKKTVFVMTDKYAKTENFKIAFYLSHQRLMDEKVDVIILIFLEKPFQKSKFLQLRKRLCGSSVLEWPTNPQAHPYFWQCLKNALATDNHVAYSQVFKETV
From the text: HEK293-Blue-hTLR-7 Cells Assay:
A stable HEK293-Blue-hTLR-7 cell line was purchased from InvivoGen (Cat. #: hkb-ht1r7, San Diego, Calif., USA). These cells were originally designed for studying the stimulation of human TLR7 by monitoring the activation of NF-κB. A SEAP (secreted embryonic alkaline phosphatase) reporter gene was placed under the control of the IFN-β minimal promoter fused to five NF-κB and AP-1-binding sites. The SEAP was induced by activating NF-κB and AP-1 via stimulating HEK-Blue hTLR7 cells with TLR7 ligands. Therefore the reporter expression was declined by TLR7 antagonist under the stimulation of a ligand, such as R848 (Resiquimod), for incubation of 20 hrs. The cell culture supernatant SEAP reporter activity was determined using QUANTI-Blue™ kit (Cat. #: rep-qb1, Invivogen, San Diego, Ca, USA) at a wavelength of 640 nm, a detection medium that turns purple or blue in the presence of alkaline phosphatase.
HEK293-Blue-hTLR7 cells were incubated at a density of […] cells/mL in a volume of 170 μL in a 96-well plate in Dulbecco's Modified Eagle's medium (DMEM) containing 4.5 g/L glucose, 50 U/mL penicillin, […], […], 2 mM L-glutamine, 10% (v/v) heat-inactivated fetal bovine serum with addition of 20 μL test compound in a serial dilution in the presence of final DMSO at 1% and 10 μL of 20 uM R848 in above DMEM, perform incubation under 37° C. in a CO2 incubator for 20 hrs. Then 20 μL of the supernatant from each well was incubated with 180 μL Quanti-blue substrate solution at 37° C. for 2 hrs and the absorbance was read at 620˜655 nm using a spectrophotometer. The signaling pathway that TLR7 activation leads to downstream NF-κB activation has been widely accepted, and therefore similar reporter assay was modified for evaluating TLR7 antagonist.

T2 sequence (Q12809 whole entry): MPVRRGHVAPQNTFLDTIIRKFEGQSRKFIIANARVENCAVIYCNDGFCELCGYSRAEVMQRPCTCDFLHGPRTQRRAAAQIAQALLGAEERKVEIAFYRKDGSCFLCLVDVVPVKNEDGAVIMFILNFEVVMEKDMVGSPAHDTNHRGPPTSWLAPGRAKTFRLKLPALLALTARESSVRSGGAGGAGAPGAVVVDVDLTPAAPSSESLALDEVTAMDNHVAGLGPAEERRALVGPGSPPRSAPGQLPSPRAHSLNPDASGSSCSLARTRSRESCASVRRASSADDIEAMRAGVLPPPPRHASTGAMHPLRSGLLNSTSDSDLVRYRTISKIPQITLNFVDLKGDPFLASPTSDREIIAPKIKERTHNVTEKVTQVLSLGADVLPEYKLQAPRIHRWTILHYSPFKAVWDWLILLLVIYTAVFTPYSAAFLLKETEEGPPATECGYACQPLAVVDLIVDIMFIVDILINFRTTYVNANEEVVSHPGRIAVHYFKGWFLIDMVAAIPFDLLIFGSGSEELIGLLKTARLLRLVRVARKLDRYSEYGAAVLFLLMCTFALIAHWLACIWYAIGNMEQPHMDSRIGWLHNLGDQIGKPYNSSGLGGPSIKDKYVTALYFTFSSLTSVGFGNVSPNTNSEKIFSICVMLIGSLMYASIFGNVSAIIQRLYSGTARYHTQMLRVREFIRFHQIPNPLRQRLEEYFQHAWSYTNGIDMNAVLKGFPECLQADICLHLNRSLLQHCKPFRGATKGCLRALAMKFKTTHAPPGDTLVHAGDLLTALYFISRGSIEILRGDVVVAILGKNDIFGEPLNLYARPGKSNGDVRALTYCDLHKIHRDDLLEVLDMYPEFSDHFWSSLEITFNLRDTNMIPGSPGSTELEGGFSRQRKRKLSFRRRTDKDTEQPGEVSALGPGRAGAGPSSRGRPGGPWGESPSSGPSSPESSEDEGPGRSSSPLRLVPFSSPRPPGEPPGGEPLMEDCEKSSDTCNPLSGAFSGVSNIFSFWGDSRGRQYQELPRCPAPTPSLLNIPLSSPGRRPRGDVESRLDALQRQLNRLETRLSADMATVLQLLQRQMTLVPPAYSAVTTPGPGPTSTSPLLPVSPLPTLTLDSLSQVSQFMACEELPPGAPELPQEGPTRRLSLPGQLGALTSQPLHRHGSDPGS

pIC50 [3]	pIC50 [4]	Structure (SMILES)	pIC50 [1]	safety window (hERG IC20/TLR7/8/9 IC50) compared to the compounds of this invention [2]	hERG IC20/TLR7 IC50 [2]	hERG IC20/TLR9 IC50 [2]	hERG IC20/TLR8 IC50 [2]
–	–	C[C@@H]1CN(c2ccc(C#N)c3ncccc23)C[C@H](CN2CCN(c3ccccc3)CC2)O1 [ER-887258, reference compound]	< 5.70	much narrower safety window	8.1	0.3	–
–	–	C[C@@H]1CN(c2ccc(C#N)c3ncccc23)C[C@H](CN2CCN(c3ccccn3)CC2)O1 [ER-888285, reference compound]	< 5.70	much narrower safety window	8.4	0.5	–
–	–	C[C@@H]1CN(c2ccc(C#N)c3ncccc23)C[C@H](CN2CC(NS(=O)(=O)c3ccc(F)cc3)C2)O1 [ER-894155]	< 5.00	–	–	–	–
–	–	Cc1nn(C)cc1S(=O)(=O)NC1CCN(C[C@H]2CN(c3ccc(C#N)c4ncccc34)C[C@@H](C)O2)CC1 [ER-894160]	< 5.00	–	–	–	–
–	–	C[C@@H]1CN(c2ccc(C#N)c3ncccc23)C[C@H](CN2CC[C@@H](NC(=O)c3ccccc3)C2)O1 [ER-894544]	< 5.21	–	–	–	–
7.16	7.89	[2H]c1nc2c(C#N)ccc(N3C[C@H](CN4CCN(c5nc(C)cc(N6C[C@H](OC)[C@@H](N)C6)n5)CC4)O[C@H](C)C3)c2nc1[2H] [Example 105, 8-[(2S,6R)-2-[[4-[4-[(3S,4S)-3-amino-4-methoxy-pyrrolidin-1-yl]-6-methyl-pyrimidin-2-yl]piperazin-1-yl]methyl]-6-methyl-morpholin-4-yl]-2,3-dideuterio-quinoxaline-5-carbonitrile]	–	–	–	–	–
–	–	COc1ccc(N2CCN(C[C@H]3CN(c4ccc(C#N)c5ncccc45)C[C@@H](C)O3)CC2)cc1 [Example R1, 5-[(2S,6R)-2-[[4-(4-methoxyphenyl)piperazin-1-yl]methyl]-6-methyl-morpholin-4-yl]quinoline-8-carbonitrile, reference compound]	–	much narrower safety window	9.3	0.1	6.2
–	–	C[C@@H]1CN(c2ccc(C#N)c3ncccc23)C[C@H](CN2CCN(c3ccc(Cl)cc3)CC2)O1 [Example R2, 5-[(2S,6R)-2-[[4-(4-chlorophenyl)piperazin-1-yl]methyl]-6-methyl-morpholin-4-yl]quinoline-8-carbonitrile, reference compound]	–	much narrower safety window	1.3	0.04	0.8
